Data on 25 molecules can be found in paper PMC9502272, “A Metabolomics Approach for Predicting OATP1B-Type Transporter-Mediated Drug–Drug Interaction Liabilities” (Pharmaceutics, 2022).

The target in this data set is T1, Oatp1b2 (Mus musculus, UniProt Q9JJL3).
T1 sequence (Q9JJL3 1-689): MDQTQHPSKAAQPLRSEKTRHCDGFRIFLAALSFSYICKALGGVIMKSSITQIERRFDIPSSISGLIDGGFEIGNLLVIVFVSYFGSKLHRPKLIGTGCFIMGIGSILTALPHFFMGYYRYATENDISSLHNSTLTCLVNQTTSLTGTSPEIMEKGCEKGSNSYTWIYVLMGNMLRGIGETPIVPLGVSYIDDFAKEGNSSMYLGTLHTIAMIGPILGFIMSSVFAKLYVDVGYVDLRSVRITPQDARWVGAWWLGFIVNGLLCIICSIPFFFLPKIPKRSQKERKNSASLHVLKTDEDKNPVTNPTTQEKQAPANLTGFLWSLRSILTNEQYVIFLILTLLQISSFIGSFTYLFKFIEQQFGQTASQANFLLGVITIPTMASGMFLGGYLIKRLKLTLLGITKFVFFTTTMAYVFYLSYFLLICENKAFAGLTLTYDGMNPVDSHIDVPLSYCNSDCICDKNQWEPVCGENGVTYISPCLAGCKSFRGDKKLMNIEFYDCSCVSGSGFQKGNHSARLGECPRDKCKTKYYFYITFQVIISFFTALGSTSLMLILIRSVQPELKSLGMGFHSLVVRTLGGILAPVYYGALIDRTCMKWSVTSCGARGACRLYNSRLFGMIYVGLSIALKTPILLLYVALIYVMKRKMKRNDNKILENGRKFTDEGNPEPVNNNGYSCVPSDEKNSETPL
As to the kind of experiment: Untargeted metabolomics of plasma from untreated wild-type and Oatp1b2(−/−) mice. The note with it: for Fold of Change KO/WT: plasma of untreated Oatp1b2-deficient (KO) vs wild-type (WT) mice, semi-quantitative, positive = higher in KO, n = 6 per group; for Mean value KO: plasma of untreated Oatp1b2-deficient mice; for Mean value KO / Mean value WT: raw area counts rescaled to median = 1; for Mean value WT: plasma of untreated wild-type mice.

Method: For all experiments, age- and sex-matched mice (8–12 weeks old) were used. […] Mice with a deficiency of Oatp1b2 (Oatp1b2(−/−) mice), the single murine orthologue of OATP1B1 and OATP1B3 in humans, on a DBA/1LacJ background were kindly provided by Drs. Richard B. Kim (Western University, London, Ontario, Canada) and Jeffrey L. Stock (Pfizer, Groton, CT, USA).
Plasma samples from untreated wild-type mice and Oatp1b2(−/−) mice were analyzed for structurally named and unknown molecules using a non-targeted semi-quantitative liquid chromatography-tandem mass spectrometry (LC-MS/MS) and gas chromatography-mass spectrometry platforms (Metabolon, Durham, NC, USA). Compounds were identified by comparison with library entries of purified standards or recurrent unknown entities.

`O=C(O)[C@H]1OC(O)[C@H](O)[C@@H](O)[C@@H]1O` (mixture of isomers) [glucuronate]: the “Fold of Change KO/WT” value is recorded as 3.17, the “Mean value KO” value came to 1.59 and the “Mean value WT” value was “.500”.
The corresponding values for `CCCCCCCCCCCCCCCC(=O)OC[C@H](COP(=O)([O-])OCC[N+](C)(C)C)OC(=O)CCCCCCCCCCCCCCC` [1,2-dipalmitoyl-GPC (16:0/16:0)] are 1.31, 1.18 and “.901”.
The corresponding values for `CCCCCCCCCCCCCCCC(=O)OC[C@H](COP(=O)(O)OCCN)OC(=O)CCCCCCCCCCCCCCC` [1,2-dipalmitoyl-GPE (16:0/16:0)] are 2.02, 1.34 and “.664”.
The corresponding values for `CCCCCCCC/C=C\CCCCCC/C=C\OC[C@@H](O)COP(=O)(O)OCCN` [1-(1-enyl-oleoyl)-GPE (P-18:1)] are 2.16, 1.45 and “.672”.
For the molecule `CCCCC/C=C\C/C=C\C/C=C\C/C=C\CCCC(=O)O[C@H](CO/C=C\CCCCCCCCCCCCCC)COP(=O)([O-])OCC[N+](C)(C)C` [1-(1-enyl-palmitoyl)-2-arachidonoyl-GPC (P-16:0/20:4)], the “Fold of Change KO/WT” value is listed as 1.46, the “Mean value KO” value amounted to 1.30 and the “Mean value WT” value is given as “.891”.
Taken in the same sequence, the figures for `CCCCC/C=C\C/C=C\C/C=C\C/C=C\CCCC(=O)O[C@H](CO/C=C\CCCCCCCCCCCCCC)COP(=O)(O)OCCN` [1-(1-enyl-palmitoyl)-2-arachidonoyl-GPE (P-16:0/20:4)] were 1.34, 1.13 and “.839”.
For the molecule `CCCCC/C=C\C/C=C\CCCCCCCC(=O)O[C@H](CO/C=C\CCCCCCCCCCCCCC)COP(=O)(O)OCCN` [1-(1-enyl-palmitoyl)-2-linoleoyl-GPE (P-16:0/18:2)], the “Fold of Change KO/WT” value is listed as 1.34, the “Mean value KO” value worked out at 1.16 and the “Mean value WT” value is listed as “.862”.
Taken in the same sequence, the figures for `CCCCCCCC/C=C\CCCCCCCC(=O)O[C@H](CO/C=C\CCCCCCCCCCCCCC)COP(=O)(O)OCCN` [1-(1-enyl-palmitoyl)-2-oleoyl-GPE (P-16:0/18:1)] were 1.32, 1.18 and “.895”.
As to `CCCCCCCCCCCCCC/C=C\OC[C@H](COP(=O)([O-])OCC[N+](C)(C)C)OC(=O)CCCCCCCCCCCCCCC` [1-(1-enyl-palmitoyl)-2-palmitoyl-GPC (P-16:0/16:0)], the “Fold of Change KO/WT” value was determined as 1.24, the “Mean value KO” value amounted to 1.14 and the “Mean value WT” value is listed as “.919”.
Take `CCCCCCCCCCCCCCC=COCC(O)COP(=O)([O-])OCC[N+](C)(C)C` (stereo not drawn) [1-(1-enyl-palmitoyl)-GPC (P-16:0)]: the “Fold of Change KO/WT” value turned out to be 1.59, the “Mean value KO” value is listed as 1.26 and the “Mean value WT” value is listed as “.795”.
As to `CCCCCCCCCCCCCC/C=C\OC[C@@H](O)COP(=O)(O)OCCN` [1-(1-enyl-palmitoyl)-GPE (P-16:0)], the “Fold of Change KO/WT” value is reported as 1.79, the “Mean value KO” value amounted to 1.30 and the “Mean value WT” value is “.725”.
As to `CCCCC/C=C\C/C=C\C/C=C\C/C=C\CCCC(=O)O[C@H](CO/C=C\CCCCCCCCCCCCCCCC)COP(=O)(O)OCCN` [1-(1-enyl-stearoyl)-2-arachidonoyl-GPE (P-18:0/20:4)], the “Fold of Change KO/WT” value was 1.33, the “Mean value KO” value was found to be 1.10 and the “Mean value WT” value is on record as “.828”.
The corresponding values for `CCCCCCCCCCCCCCCC/C=C\OC[C@@H](O)COP(=O)(O)OCCN` [1-(1-enyl-stearoyl)-GPE (P-18:0)] are 1.72, 1.28 and “.747”.
`CCCCC/C=C\C/C=C\C/C=C\C/C=C\CCCC(=O)OC[C@@H](O)COP(=O)(O)O` [1-arachidonoyl-GPA (20:4)]: the “Fold of Change KO/WT” value is 1.80, the “Mean value KO” value came out at 1.17 and the “Mean value WT” value is on record as “.652”.
Take `CCCCC/C=C\C/C=C\C/C=C\C/C=C\CCCC(=O)OC[C@@H](O)COP(=O)([O-])OCC[N+](C)(C)C` [1-arachidonoyl-GPC (20:4n6)]: the “Fold of Change KO/WT” value is on record as 1.63, the “Mean value KO” value was 1.27 and the “Mean value WT” value is reported as “.775”.
For the molecule `CCCCC/C=C\C/C=C\C/C=C\C/C=C\CCCC(=O)OC[C@@H](O)COP(=O)(O)OCCN` [1-arachidonoyl-GPE (20:4n6)], the “Fold of Change KO/WT” value was determined as 1.49, the “Mean value KO” value is 1.20 and the “Mean value WT” value is “.803”.
Taken in the same sequence, the figures for `CCCCC/C=C\C/C=C\C/C=C\C/C=C\CCCC(=O)OC[C@@H](O)COP(=O)(O)OC1C(O)C(O)C(O)C(O)C1O` (stereo partly drawn) [1-arachidonoyl-GPI (20:4)] were 1.48, 1.11 and “.754”.
The corresponding values for `CCCCCCCCCCCCCCCCCCCCCCCC(=O)OC[C@@H](O)COP(=O)([O-])OCC[N+](C)(C)C` [1-lignoceroyl-GPC (24:0)] are 1.36, 1.16 and “.847”.
On to `CC/C=C\C/C=C\C/C=C\CCCCCCCC(=O)OC[C@@H](O)COP(=O)([O-])OCC[N+](C)(C)C` [1-linolenoyl-GPC (18:3)], for which the “Fold of Change KO/WT” value is recorded as 2.13, the “Mean value KO” value was found to be 1.41 and the “Mean value WT” value was “.661”.
As to `CCCCC/C=C\C/C=C\C/C=C\C/C=C\CCCC(=O)O[C@H](COC(=O)CCCCCCC/C=C\C/C=C\CCCCC)COP(=O)([O-])OCC[N+](C)(C)C` [1-linoleoyl-2-arachidonoyl-GPC (18:2/20:4n6)], the “Fold of Change KO/WT” value was found to be 1.36, the “Mean value KO” value is listed as 1.15 and the “Mean value WT” value is reported as “.846”.
As for `CCCCC/C=C\C/C=C\C/C=C\C/C=C\CCCC(=O)O[C@H](COC(=O)CCCCCCC/C=C\C/C=C\CCCCC)COP(=O)(O)OCCN` [1-linoleoyl-2-arachidonoyl-GPE (18:2/20:4)], the “Fold of Change KO/WT” value worked out at 1.48, the “Mean value KO” value came to 1.26 and the “Mean value WT” value is given as “.854”.
As for `CC/C=C\C/C=C\C/C=C\CCCCCCCC(=O)O[C@H](COC(=O)CCCCCCC/C=C\C/C=C\CCCCC)COP(=O)([O-])OCC[N+](C)(C)C` [1-linoleoyl-2-linolenoyl-GPC (18:2/18:3)], the “Fold of Change KO/WT” value was 1.51, the “Mean value KO” value is reported as 1.40 and the “Mean value WT” value is recorded as “.923”.
On to `CCCCC/C=C\C/C=C\CCCCCCCC(=O)OC[C@@H](O)COP(=O)(O)O` [1-linoleoyl-GPA (18:2)], for which the “Fold of Change KO/WT” value amounted to 2.36, the “Mean value KO” value is listed as 1.41 and the “Mean value WT” value is on record as “.595”.
Taken in the same sequence, the figures for `CCCCC/C=C\C/C=C\CCCCCCCC(=O)OC[C@@H](O)COP(=O)([O-])OCC[N+](C)(C)C` [1-linoleoyl-GPC (18:2)] were 1.62, 1.22 and “.752”.
Take `CCCCC/C=C\C/C=C\CCCCCCCC(=O)OC[C@@H](O)COP(=O)(O)OCCN` [1-linoleoyl-GPE (18:2)]: the “Fold of Change KO/WT” value is given as 1.94, the “Mean value KO” value is given as 1.42 and the “Mean value WT” value was “.736”.
